Reference: US11596151B2, “Compositions for the protection of agrarian crops and use thereof” (priority 2017, dated 2023)

Assay: Solubility of fluindapyr in test solvent at 140 g/L, crystal growth check after one week at 0° C.
Type: physicochemical
Parameters: key: PASS: A solution without crystal growth under the storage condition was considered a Pass
Procedure: In order to test the solubility of an active ingredient comprising an aminoindane amide active compound, fluindapyr was added into a test solvent at the concentration of 140 g/L under sufficient agitation. The test solvents were selected based on Hansen Solubility Parameters with a Relative Energy Difference (RED) of between 0.7 and 1.6. The completed dissolved solutions were further stored for one week at 0° C. to check if any crystals grew or not under the storage condition.

Dissolution (solvent 2-ethylhexanol): FAIL
Dissolution (solvent N,N-dimethyldecanamide): PASS
Dissolution (solvent N-butyl acetate): FAIL
Dissolution (solvent N-heptane): FAIL
Dissolution (solvent O-dichlorobenzene): FAIL
Dissolution (solvent POWERBLOX SV-17): FAIL
Dissolution (solvent acetonitrile): FAIL
Dissolution (solvent dibutyl ether): FAIL
Dissolution (solvent diethylene glycol monoethyl ether): PASS
Dissolution (solvent diethylene glycol monomethyl ether): PASS
Dissolution (solvent diethylene glycol n-butyl ether acetate): FAIL
Dissolution (solvent diisobutyl ketone): FAIL
Dissolution (solvent dimethyl formamide): FAIL
Dissolution (solvent dipropylene glycol methyl ether acetate): FAIL
Dissolution (solvent dipropylene glycol n-butyl ether): FAIL
Dissolution (solvent dipropylene glycol n-propyl ether): FAIL
Dissolution (solvent dipropyleneglycol phenyl ether): FAIL
Dissolution (solvent ethoxytriglycol): FAIL
Dissolution (solvent ethylene glycol monobutyl ether): FAIL
Dissolution (solvent ethylene glycol n-butyl ether acetate): FAIL
Dissolution (solvent ethylene glycol phenyl ether): FAIL
Dissolution (solvent isobutyl heptyl ketone): FAIL
Dissolution (solvent methyl alcohol): FAIL
Dissolution (solvent methyl ethyl ketone): FAIL
Dissolution (solvent methyl isobutyl ketone): FAIL
Dissolution (solvent perchloroethylene): FAIL
Dissolution (solvent propylene carbonate): FAIL
Dissolution (solvent propylene glycol): FAIL
Dissolution (solvent propylene glycol diacetate): FAIL
Dissolution (solvent propylene glycol monomethyl ether acetate): FAIL
Dissolution (solvent propylene glycol n-butyl ether): FAIL
Dissolution (solvent propylene glycol phenyl ether): FAIL
Dissolution (solvent tetrahydrofuran): FAIL
Dissolution (solvent toluene): FAIL
Dissolution (solvent tripropylene glycol n-butyl ether): FAIL
SMILES: CC1CC(C)(C)c2c(F)ccc(NC(=O)c3cn(C)nc3C(F)F)c21 (centres unmarked) [fluindapyr]
